pEC50, pIC50: −log10 of the molar value. Like-named read-outs stand apart in the source and are kept apart here.
Legend:
HRV3C = HRV3C (Human rhinovirus 14, UniProt P03303); test: HRV3C protease assay (duplex, SAMDI-MS); assay type: biochemical, HRV; conditions: 30 mins preincubation
Outline: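 HRV3C was preincubated 30 min with compound alongside 3CLpro at ambient temperature, then two biotinylated peptide substrates were added for 30 min. Quenching used 0.5% formic acid (final). Cleaved product was captured on neutravidin SAMDI arrays and quantified by MALDI-TOF as product/internal-standard AUC ratio; IC50 from four-parameter fit.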

[1] = test system: human beta-coronavirus OC43; test: microbe, parasite or virus in culture; assay type: cell-based; conditions: Betacoronavirus 1, OC43, HeLa, 144 h
[2] = Cytotoxicity plates without OC43 virus (cell-titer-glo); assay type: cell-based, human; conditions: human; HeLa cells without OC43 virus, class symbols
Outline: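 Run as a virus-free counterpart of the OC43 cytopathic-effect assay. Attached HeLa cells received compound dilutions in EMEM with 2% FBS and were kept 6 days at 33 °C. Cell viability was then measured by CellTiter-Glo luminescence.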

[3] = test system: SARS-CoV-2-GHB-03021/2020; test: SARS-CoV-2 Infection Model in Huh7 Cells; assay type: cell-based; conditions: Severe acute respiratory syndrome coronavirus 2, Huh-7, 96 h, SARS-CoV-2, day 4 p.i., MTS
[4] = test system: SARS-CoV-2-GHB-03021/2020; test: microbe, parasite or virus in culture; assay type: cell-based; conditions: Severe acute respiratory syndrome coronavirus 2, Vero C1008, 96 h; read-out: VeroE6 + CP (EC50)
human cathepsin L = target: T1, human cathepsin L (Homo sapiens, UniProt P07711); test: cathepsin L assay; assay type: biochemical; conditions: 10 pM human cathepsin L, Z-FR-AMC 2 μM, class symbols
T1 construct: purchased R&D Systems
Outline: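 Reactions began by adding 2 μM (final) Z-FR-AMC substrate to 10 pM human cathepsin L that had been preincubated 30 min with inhibitor. Kinetic AMC fluorescence at 355/460 nm over 30 min at 2-min intervals; four-parameter fitting gave IC50 values.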

in vitro [5] = conditions: human
in vitro [6] = conditions: African green monkey, VeroE6 + CP (CC50), Vero E6-eGFP cells with CP-100356, absence of virus, MTS
3CLpro = 3CLpro (Severe acute respiratory syndrome coronavirus 2, UniProt P0DTD1); test: SARS-CoV-2 3CLpro protease assay (duplex, SAMDI-MS); assay type: biochemical; parameters: For the duplex assay, 3CLpro and HRV3C was added; conditions: 3CLpro, 30 mins preincubation, read-out: SARS-Cov-2 IC50
[7] = OC43 in HeLa cells, 6 days at 33° C., class symbols, read-out: EC50
[8] = HRV3C, bound, read-out: HRV IC50
[9] = OC43 in HeLa cells, 6 days at 33° C., bound, read-out: EC50
[10] = HRV3C, class symbols, read-out: HRV IC50

| Structure (SMILES) | pIC50 (HRV3C; HRV IC50, HRV3C, class symbols) | pEC50 [1, 7] | CC50 at 6 days [2] [µM] | pEC50 ([3]; class symbols) | pEC50 [4] | pIC50 (human cathepsin L) | CC50 (in vitro [5]) [µM] | CC50 (in vitro [6]; numeric bounds) [µM] | pIC50 (3CLpro; class symbols) | pIC50 (HRV3C; [8]) | pEC50 [1, 9] | pEC50 ([3]; numeric bounds) | pIC50 (HRV3C; [10]) | CC50 (in vitro [6]; class symbols) [µM] | pEC50 [1] | pIC50 (3CLpro; bound) |
| --- | --- | --- | --- | --- | --- | --- | --- | --- | --- | --- | --- | --- | --- | --- | --- | --- |
| O=C1NCCC[C@H]1C[C@H](NC(=O)[C@@H]1[C@H]2CCC[C@H]2CN1C(=O)c1cc2ccccc2[nH]1)C(O)S(=O)(=O)O (stereo partly drawn) [Compound 58, sodium (2S)-2-{[(1S,3aR,6aS)-2-(1H-indole-2-carbonyl)-hexahydro-1H-cyclopenta[c]pyrrol-1-yl]formamido}-1-hydroxy-3-[(3S)-2-oxopiperidin-3-yl]propane-1-sulfonate] | 6.70 to 7.70 | 6.00 to 7.00 | > 10 | > 6.00 | > 6.00 | 5.00 to 6.00 | > 100 | > 100 | > 7.70 |  |  |  |  |  |  |  |
| O=C1NCC[C@H]1C[C@H](NC(=O)[C@@H]1[C@H]2CCC[C@H]2CN1C(=O)c1cc2c([nH]1)CCS2(=O)=O)C(=O)CO [Compound 159, (1S,3aR,6aS)-2-{1,1-dioxo-2H,3H,4H-1λ6-thieno[3,2-b]pyrrole-5-carbonyl}-N-[(2S)-4-hydroxy-3-oxo-1-[(3S)-2-oxopyrrolidin-3-yl]butan-2-yl]-hexahydro-1H-cyclopenta[c]pyrrole-1-carboxamide] |  |  | > 10 |  | 4.00 to 5.00 | ≤ 5.00 | > 50 | > 50 | 6.70 to 7.70 | < 5.00 | < 5.00 | < 5.00 |  |  |  |  |
| O=C(NCc1ccccc1)C(=O)C(C[C@@H]1CCNC1=O)NC(=O)[C@@H]1C[C@@H](C2CC2)CN1C(=O)c1cc2ccccc2[nH]1 (stereo partly drawn) [Compound 40, N-benzyl-3-{[(2S,4S)-4-cyclopropyl-1-(1H-indole-2-carbonyl)pyrrolidin-2-yl]formamido}-2-oxo-4-[(3S)-2-oxopyrrolidin-3-yl]butanamide] |  | 6.00 to 7.00 | > 10 | 5.00 to 6.00 | 5.00 to 6.00 | 6.00 to 7.00 | > 10 | > 100 | 5.70 to 6.70 |  |  |  | 5.70 to 6.70 |  |  |  |
| COc1cccc2[nH]c(C(=O)N3C[C@@H]4CCC[C@@H]4[C@H]3C(=O)NC(C[C@@H]3CCNC3=O)C(=O)C(=O)NCc3ccccc3)nc12 (stereo partly drawn) [Compound 36, 3-[[(1S,3aR,6aS)-2-(4-methoxy-1H-1,3-benzodiazole-2-carbonyl)-hexahydro-1H-cyclopenta[c]pyrrol-1-yl]formamido]-N-benzyl-2-oxo-4-[(3S)-2-oxopyrrolidin-3-yl]butanamide] |  | 4.00 to 5.00 | > 10 | 4.00 to 5.00 | 4.00 to 5.00 | ≤ 5.00 | > 100 | > 100 | 6.70 to 7.70 |  |  |  | 4.00 to 4.70 |  |  |  |
| C=CC12CN(C(=O)c3cc4c(OC)cccc4[nH]3)C(C(=O)N[C@@H](C[C@@H]3CCNC3=O)C(=O)C(=O)NC3CC3)(C1)C2 [Compound 98] |  |  | > 10 |  | 4.00 to 5.00 | ≤ 5.00 | > 50 |  | 5.70 to 6.70 |  | < 5.00 | < 4.30 | 6.70 to 7.70 | > 10 |  |  |
| O=C(NC1CC1)C(=O)[C@H](C[C@@H]1CCNC1=O)NC(=O)[C@@H]1CC2(CCN1C(=O)c1cc3c(C(F)(F)F)cccc3[nH]1)CC2 [Compound 170] |  | 5.00 to 6.00 | > 10 | 5.00 to 6.00 | 4.00 to 5.00 | 6.00 to 7.00 | > 10 | > 50 | 6.70 to 7.70 |  |  |  | 5.70 to 6.70 |  |  |  |
| COc1cccc2[nH]c(C(=O)N3C[C@]4(C[C@H]3C(=O)NC(C[C@@H]3CCCNC3=O)C(=O)C(N)=O)CC4(F)F)cc12 (stereo partly drawn) [Compound 46, (3S,6S)—N-(4-amino-3,4-dioxo-1-((S)-2-oxopiperidin-3-yl)butan-2-yl)-1,1-difluoro-5-(4-methoxy-1H-indole-2-carbonyl)-5-azaspiro[2.4]heptane-6-carboxamide] |  | 4.00 to 5.00 | > 10 | 4.00 to 5.00 | 4.00 to 5.00 | 5.00 to 6.00 | > 10 | > 100 | 6.70 to 7.70 |  |  |  | 5.70 to 6.70 |  |  |  |
| O=C1NCC[C@H]1C[C@H](NC(=O)[C@@H]1[C@H]2CCC[C@H]2CN1C(=O)c1cc2c(OC(F)F)cccc2[nH]1)C(=O)CO [Compound 87, (1S,3aR,6aS)-2-[4-(difluoromethoxy)-1H-indole-2-carbonyl]-N-[(2S)-4-hydroxy-3-oxo-1-[(3S)-2-oxopyrrolidin-3-yl]butan-2-yl]-hexahydro-1H-cyclopenta[c]pyrrole-1-carboxamide] |  | > 7.00 | > 10 | 5.00 to 6.00 | > 6.00 | ≤ 5.00 | > 10 | > 100 | > 7.70 |  |  |  | 4.70 to 5.70 |  |  |  |
| O=C1NCC[C@H]1C[C@H](NC(=O)[C@@H]1[C@H]2CCC[C@H]2CN1C(=O)c1cc(-c2ccccc2)c[nH]1)C(=O)CO [Compound 79, (1S,3aR,6aS)—N—((S)-4-hydroxy-3-oxo-1-((S)-2-oxopyrrolidin-3-yl)butan-2-yl)-2-(4-phenyl-1H-pyrrole-2-carbonyl)octahydrocyclopenta[c]pyrrole-1-carboxamide] | 4.70 to 5.70 |  | > 10 | 5.00 to 6.00 | 5.00 to 6.00 | ≤ 5.00 | > 50 | > 50 | 6.70 to 7.70 |  |  |  |  |  | 6.00 to 7.00 |  |
| CC(C)[C@@H]1C[C@@H](C(=O)NC(C[C@@H]2CCNC2=O)C(=O)C(=O)NCc2ccccc2)N(C(=O)c2cc3ccccc3[nH]2)C1 (stereo partly drawn) [Compound 48, N-benzyl-3-{[(2S,4S)-1-(1H-indole-2-carbonyl)-4-isopropylpyrrolidin-2-yl]formamido}-2-oxo-4-[(3S)-2-oxopyrrolidin-3-yl]butanamide] |  | 6.00 to 7.00 | > 10 | 5.00 to 6.00 | 5.00 to 6.00 | 6.00 to 7.00 | > 10 | > 100 | 5.70 to 6.70 |  |  |  | 4.70 to 5.70 |  |  |  |
| O=C(NCc1ccccc1)C(=O)[C@H](Cc1cccnc1)NC(=O)[C@@H]1CC2(CC2)CN1C(=O)c1cc2ccccc2[nH]1 [Compound 111, (S)—N—((S)-4-(benzylamino)-3,4-dioxo-1-(pyridin-3-yl)butan-2-yl)-5-(1H-indole-2-carbonyl)-5-azaspiro[2.4]heptane-6-carboxamide] |  | 4.00 to 5.00 | > 10 | 5.00 to 6.00 | < 4.00 | > 7.00 | > 10 | > 100 |  | < 5.00 |  |  |  |  |  | < 5.00 |
| O=C1NCC[C@H]1C[C@H](NC(=O)[C@@H]1[C@H]2CCC[C@H]2CN1C(=O)c1cc2c(Cl)cccc2[nH]1)C(=O)CO [Compound 60, (1S,3aR,6aS)-2-(4-chloro-1H-indole-2-carbonyl)-N-[(2S)-4-hydroxy-3-oxo-1-[(3S)-2-oxopyrrolidin-3-yl]butan-2-yl]-hexahydro-1H-cyclopenta[c]pyrrole-1-carboxamide] |  | > 7.00 | > 10 | > 6.00 | > 6.00 | ≤ 5.00 | > 100 |  | > 7.70 | < 5.00 |  |  |  | > 10 |  |  |
| O=C1NCC[C@H]1C[C@H](NC(=O)[C@@H]1[C@H]2CCC[C@H]2CN1C(=O)c1cc2c([nH]1)CCCC2)C(=O)CO [Compound 83, (1S,3aR,6aS)—N-[(2S)-4-hydroxy-3-oxo-1-[(3S)-2-oxopyrrolidin-3-yl]butan-2-yl]-2-(4,5,6,7-tetrahydro-1H-indole-2-carbonyl)-hexahydro-1H-cyclopenta[c]pyrrole-1-carboxamide] |  | 6.00 to 7.00 | > 10 | > 6.00 | > 6.00 | ≤ 5.00 | > 50 | > 50 | 6.70 to 7.70 | < 5.00 |  |  |  |  |  |  |

Reference: patent publication US11952365B2, “Anti-viral compounds” (Aligos Therapeutics, Inc., priority 2020, dated 2024)
